Consider three compounds from paper PMC9096754 (Scientific Reports, 2022).

Assay [1] has as its target T1, human AA2AR (Homo sapiens, UniProt P29274).
T1 construct: host or cells: RBL-2H3
Briefly: Adenosine A2A receptor (AA2AR) calcium flux assay in RBL-2H3 cells (Eurofins Cerep 86-0011P-2409AN). In kind it is cell-based. The settings on record: top 30 μM, active if IC50 lower than 30 μM. Background: Calcium flux is commonly read through the fluorescence of an indicator in the cells.

For assay [2], the target named is T2, PI3 Kinase (p110b/p85a) (Homo sapiens, UniProt P42338).
T2 construct: purchased Eurofins (Cerep), fee-for-service 14-603KP
In words: PI3 Kinase (p110b/p85a) enzymatic HTRF assay (Eurofins Cerep 14-603KP). In kind it is biochemical. Particulars: for remaining activity at 30 µM: % kinase activity remaining. As to the method:
Additional details on the conduct of in vitro assays are included in Supplementary Information S1. […]
PI3 Kinase (p110b/p85a). The enzyme was incubated in assay buffer containing 10 µM
phosphatidylinositol -4, 5-bispho sphate and Mg/A TP (200 µM). The reaction was initiated by
the addition of the Mg/ATP mixture. Afte r incubation for 30 minutes at 25 °C, the reaction was
terminated by the addition of a solution containing EDTA and biotinylated
phosphatidylinositol - 3,4,5-trisphosphate. Detection buffer containing europium -labelled anti -
GST monoclonal antibody, GST -tagged GRP1 PH domain and streptavidin -allophycocyanin
was added. Following, the plate was read in time-resolved fluorescence mode and the
homogeneous time -resolved fluorescence (HTRF) signal was determined according to the
formula HTRF = 10000 x (Em665 nm/Em6 20 nm). PI-103 was used as reference compound.
A primary screening in duplicated was carried out (30 µM) to determine the target activity. The
result was e xpres sed as a percentage of the positiv e control (i.e. % kinase activity remaining),
and the mean of the replicates was calculated. (Eurofins Cerep assay ID: 14 -603KP) […]
A primary screening in duplicated was carried out (30 µM) to determine the target
On the technique in general: In TR-FRET formats the signal depends on donor and acceptor labels being close together.

Assay [3] deals with T3, Mouse recombinant iNOS (Mus musculus, UniProt P29477).
T3 construct: purchased Eurofins (Cerep), fee-for-service 3185; host or cells: Escherichia coli
In words: Inducible NOS (iNOS) enzymatic assay (Eurofins Cerep 3185). In kind it is biochemical. Here is the method:
In vitro characterization was performed on a fee-for-service basis at Eurofins (www.eurofins.com) if the assay was commercially available. […] DTT) to remove unbound ligand and to reduce nonspecific binding. […] The analysis was carried on in polypropylene 384-well plates incubated at 25 °C with shaking for 1 h in a final volume of 20 μL. […] The kinase concentration in the eluates was measured by qPCR. […] The mixture was incubated for 90 minutes at 37 °C, followed by the addition of Griess reagent. The binding was determined by photometry at 545 nm. […] was used as reference compound. […] A primary screening in duplicated was carried out (30 μM) to determine the target activity. […] The reaction was initiated by the addition of the Mg/ATP mixture. Afte r incubation for 30 minutes at 25 °C, the reaction was terminated by the addition of a solution containing EDTA and biotinylated phosphatidylinositol - 3,4,5-trisphosphate. Detection buffer containing europium -labelled anti - GST monoclonal antibody, GST -tagged GRP1 PH domain and streptavidin -allophycocyanin was added. Following, the plate was read in time-resolved fluorescence mode and the homogeneous time -resolved fluorescence (HTRF) signal was determined according to the formula HTRF = 10000 x (Em665 nm/Em6 20 nm). PI-103 was used as reference compound. […] The binding was determined by Spectrofluorimetric quantitation of rhodamine 123 (Excitation: 485 nm, Emission: 535 nm). 2 -TEDC was used as a reference compound. A primary screening in duplicated was carried out (30 μM) to determine the target S4

Assay [4] deals with T4, human PDE10A2 (Homo sapiens, UniProt Q9Y233).
T4 construct: purchased Eurofins (Cerep), fee-for-service 4080; host or cells: Sf9
Briefly: Phosphodiesterase 10A2 (PDE10A2) enzymatic assay (Eurofins Cerep 4080). In kind it is biochemical. As to the method: In vitro characterization was performed on a fee-for-service basis at Eurofins (www.eurofins.com) if the assay was commercially available.
Additional details on the conduct of in vitro assays are included in Supplementary Information S1.
The IC50 value and the standard error of the mean (SEM) were determined by a non-linear, least squares regression analysis using GraphPad Prism Version 9.0.2 for Macintosh (GraphPad Software, San Diego, California USA, https://www.graphpad.com). The dose–response curve was plotted using RStudio Team (2020), v. 1.3.1073 (RStudio, PBC, Boston, MA, http://www.rstudio.com/). […]
(§1) formation of 5’AMP from cAMP using human recombinant enzyme e xpressed in Sf9 cells.
(§2) The test compound was added to a buffer containing 40 mM Tris/HCl (pH 7. 4), 8 mM MgCl2, and 0. 2 µM [3H]cAMP + cAMP. Thereafter, enzyme (about 0. 8 U) wa s added and the mixture incubated for 20 minutes at 25 °C. SPA beads were added and the mixture was maintained at 25 °C for 30 minutes under shaking. [3H]5’AMP was quantified via scintillation counting. The […]
used as standard inhibitory reference compound. A primary screening in duplicated was carried out (30 µM) to determine the target activity.
(100 µM highest concentration and dilution factor in a log-scale) in triplicate for dose-respons e

For assay [5], the target named is T5, Epidermal growth factor receptor (EGFR) (Homo sapiens, UniProt P00533).
T5 construct: purchased Eurofins (Cerep), fee-for-service 14-531KP
Briefly: Epidermal Growth Factor Receptor (EGFR) enzymatic radiometric assay (Eurofins Cerep 14-531KP). In kind it is biochemical.

For assay [6], the target named is PKN2 (human) (Homo sapiens, UniProt Q16513). Briefly: biochemical.
The test system of assay [7] is PDE10A. Details: method as in printed at the sentence. Particulars: PDE10A inhibitor, papaverine analog; ref not given; cited from earlier work.
Assay [8] concerns the target T6, Human recombinant 15-ALOX (Homo sapiens, UniProt P16050).
T6 construct: purchased Eurofins (Cerep), fee-for-service 199017; host or cells: E. coli
T6 sequence (P16050 1-662): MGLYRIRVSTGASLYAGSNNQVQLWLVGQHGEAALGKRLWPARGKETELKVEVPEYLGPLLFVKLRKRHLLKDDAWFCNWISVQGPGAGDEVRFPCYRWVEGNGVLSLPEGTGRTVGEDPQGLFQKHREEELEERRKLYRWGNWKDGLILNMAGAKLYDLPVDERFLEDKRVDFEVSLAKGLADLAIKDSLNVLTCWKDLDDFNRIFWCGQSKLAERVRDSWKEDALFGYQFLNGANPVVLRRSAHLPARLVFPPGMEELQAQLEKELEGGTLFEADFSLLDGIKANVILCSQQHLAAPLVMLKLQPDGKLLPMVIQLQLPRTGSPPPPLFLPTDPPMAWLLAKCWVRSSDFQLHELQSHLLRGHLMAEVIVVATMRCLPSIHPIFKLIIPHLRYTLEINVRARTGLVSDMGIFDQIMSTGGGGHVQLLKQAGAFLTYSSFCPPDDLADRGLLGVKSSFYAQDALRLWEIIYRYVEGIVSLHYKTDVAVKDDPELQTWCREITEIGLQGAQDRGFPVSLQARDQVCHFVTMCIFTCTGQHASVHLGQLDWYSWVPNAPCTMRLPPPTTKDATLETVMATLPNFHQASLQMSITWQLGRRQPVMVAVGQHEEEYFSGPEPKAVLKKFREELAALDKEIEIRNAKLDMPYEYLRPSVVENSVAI
In words: Arachidonate 15-lipoxygenase (15-ALOX) enzymatic assay (Eurofins Cerep 199017). Format: biochemical.

For assay [9], the target named is T7, human ADORA3 (Homo sapiens, UniProt P0DMS8).
T7 construct: host or cells: CHO
T7 sequence (P0DMS8 1-318): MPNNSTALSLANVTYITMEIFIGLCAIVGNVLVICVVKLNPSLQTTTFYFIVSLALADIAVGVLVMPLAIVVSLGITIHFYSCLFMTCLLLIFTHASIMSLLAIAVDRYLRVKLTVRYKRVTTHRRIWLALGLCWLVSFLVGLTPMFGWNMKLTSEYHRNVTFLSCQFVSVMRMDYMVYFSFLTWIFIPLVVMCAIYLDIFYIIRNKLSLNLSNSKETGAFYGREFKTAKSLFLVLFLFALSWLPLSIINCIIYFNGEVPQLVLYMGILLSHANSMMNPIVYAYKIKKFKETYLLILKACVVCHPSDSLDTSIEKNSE
Briefly: Adenosine A3 receptor (ADORA3) functional cAMP HTRF assay in CHO cells (Eurofins Cerep G107). In kind it is cell-based. The settings on record: 8 concentrations, top 30 μM, active if IC50 lower than 30 μM. Here is the method:
In vitro characterization was performed on a fee-for-service basis at Eurofins (www.eurofins.com) if the assay was commercially available. […]
tested at 8 concentrations (100 µM a s the highest concentration and dilution factor in a log-scale) in triplicate for dose-response curve and IC50 determination. (Eurofins Cerep assay ID: […]
as §1, §2
used as standard inhibitory reference compound. […]
Functional activity of ADORA3 was evaluated in CHO cells transfected with human […]
(100 nM IB-MECA) in a first assay, and in a second one with […] (10 nM IB -ME CA) for 20 minutes at 37 °C, and formation of cAMP was determined by homogeneous time resolved fluorescence (HTRF) at lex=337 nm and lem=620 and 665 nm using a microplate reader (Envison, Perkin Elmer). The cAMP concentration was determined by dividing the […]
signal measured at 665 nm by that measured at 620 nm (ratio). […]

Setting [10] is: tested at 30 μM, active if IC50 lower than 30 μM.

Molecules are shown by their SMILES. Read-outs that look alike come from different tables or passages of the source.

T2 sequence (P42338 whole entry): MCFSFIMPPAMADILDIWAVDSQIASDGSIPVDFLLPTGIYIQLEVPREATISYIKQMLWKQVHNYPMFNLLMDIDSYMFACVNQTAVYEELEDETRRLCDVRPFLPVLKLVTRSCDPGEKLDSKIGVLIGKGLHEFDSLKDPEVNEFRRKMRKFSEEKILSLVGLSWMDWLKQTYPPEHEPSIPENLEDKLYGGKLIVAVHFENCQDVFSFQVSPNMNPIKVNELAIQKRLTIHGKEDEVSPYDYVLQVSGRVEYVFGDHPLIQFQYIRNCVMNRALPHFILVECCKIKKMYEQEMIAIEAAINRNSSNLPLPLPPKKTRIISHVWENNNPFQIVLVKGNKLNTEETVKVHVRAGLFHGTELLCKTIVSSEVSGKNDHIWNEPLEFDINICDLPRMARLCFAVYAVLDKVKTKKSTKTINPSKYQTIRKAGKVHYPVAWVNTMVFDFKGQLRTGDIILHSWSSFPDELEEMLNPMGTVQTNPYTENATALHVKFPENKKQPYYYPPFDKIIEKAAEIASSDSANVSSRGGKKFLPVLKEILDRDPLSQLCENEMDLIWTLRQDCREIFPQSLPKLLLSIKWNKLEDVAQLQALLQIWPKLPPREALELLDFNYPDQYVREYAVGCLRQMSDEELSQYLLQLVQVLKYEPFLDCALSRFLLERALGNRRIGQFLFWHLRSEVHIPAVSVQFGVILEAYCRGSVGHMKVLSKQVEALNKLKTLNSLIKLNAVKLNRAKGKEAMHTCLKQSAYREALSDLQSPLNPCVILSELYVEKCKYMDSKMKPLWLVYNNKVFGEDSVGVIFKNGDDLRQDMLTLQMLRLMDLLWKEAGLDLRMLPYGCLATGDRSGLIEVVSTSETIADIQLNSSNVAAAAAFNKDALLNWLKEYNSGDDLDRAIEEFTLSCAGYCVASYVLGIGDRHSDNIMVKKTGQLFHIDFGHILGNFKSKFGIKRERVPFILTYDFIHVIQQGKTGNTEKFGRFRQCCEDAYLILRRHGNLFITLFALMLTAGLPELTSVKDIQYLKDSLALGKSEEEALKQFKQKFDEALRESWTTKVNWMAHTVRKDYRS
T2 sequence (P27986 whole entry partner): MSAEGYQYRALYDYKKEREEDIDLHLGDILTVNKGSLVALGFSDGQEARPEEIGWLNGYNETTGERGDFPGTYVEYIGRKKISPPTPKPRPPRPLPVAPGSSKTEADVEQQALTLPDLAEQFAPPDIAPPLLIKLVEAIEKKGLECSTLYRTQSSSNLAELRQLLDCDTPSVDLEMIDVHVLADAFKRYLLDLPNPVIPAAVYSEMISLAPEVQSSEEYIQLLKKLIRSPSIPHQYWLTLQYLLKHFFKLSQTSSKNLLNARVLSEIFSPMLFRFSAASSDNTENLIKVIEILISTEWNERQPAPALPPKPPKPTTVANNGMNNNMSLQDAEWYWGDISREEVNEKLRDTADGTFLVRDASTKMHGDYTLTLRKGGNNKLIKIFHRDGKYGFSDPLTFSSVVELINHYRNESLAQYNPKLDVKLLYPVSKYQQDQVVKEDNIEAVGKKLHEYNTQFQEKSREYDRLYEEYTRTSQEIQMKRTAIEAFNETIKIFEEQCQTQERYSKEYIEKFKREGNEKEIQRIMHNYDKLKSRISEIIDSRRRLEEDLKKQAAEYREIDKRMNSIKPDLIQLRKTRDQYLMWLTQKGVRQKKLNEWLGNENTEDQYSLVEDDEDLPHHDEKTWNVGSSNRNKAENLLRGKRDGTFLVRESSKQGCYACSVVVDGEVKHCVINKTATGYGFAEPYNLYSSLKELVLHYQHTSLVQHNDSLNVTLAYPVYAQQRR
T4 sequence (Q9Y233 267-1055): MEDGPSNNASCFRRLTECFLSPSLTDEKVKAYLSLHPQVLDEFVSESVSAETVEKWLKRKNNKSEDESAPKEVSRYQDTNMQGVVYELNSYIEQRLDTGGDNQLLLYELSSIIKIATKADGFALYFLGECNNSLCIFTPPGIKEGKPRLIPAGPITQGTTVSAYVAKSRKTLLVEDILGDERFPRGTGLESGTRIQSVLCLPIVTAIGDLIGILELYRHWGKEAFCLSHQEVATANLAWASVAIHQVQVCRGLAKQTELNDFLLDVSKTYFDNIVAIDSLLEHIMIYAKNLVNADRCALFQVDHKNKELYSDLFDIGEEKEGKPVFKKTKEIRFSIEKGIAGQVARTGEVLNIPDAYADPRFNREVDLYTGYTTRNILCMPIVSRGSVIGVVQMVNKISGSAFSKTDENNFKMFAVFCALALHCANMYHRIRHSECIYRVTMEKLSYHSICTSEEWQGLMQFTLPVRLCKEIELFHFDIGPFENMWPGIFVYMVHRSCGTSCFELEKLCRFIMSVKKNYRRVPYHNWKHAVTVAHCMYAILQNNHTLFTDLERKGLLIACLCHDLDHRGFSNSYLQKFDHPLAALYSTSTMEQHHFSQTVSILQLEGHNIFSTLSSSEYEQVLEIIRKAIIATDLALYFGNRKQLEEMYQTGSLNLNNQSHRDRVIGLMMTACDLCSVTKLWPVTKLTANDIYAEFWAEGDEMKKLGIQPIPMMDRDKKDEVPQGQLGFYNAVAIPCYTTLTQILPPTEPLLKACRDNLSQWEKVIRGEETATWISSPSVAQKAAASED
Chain of PKN2 (human) (Q16513 whole entry): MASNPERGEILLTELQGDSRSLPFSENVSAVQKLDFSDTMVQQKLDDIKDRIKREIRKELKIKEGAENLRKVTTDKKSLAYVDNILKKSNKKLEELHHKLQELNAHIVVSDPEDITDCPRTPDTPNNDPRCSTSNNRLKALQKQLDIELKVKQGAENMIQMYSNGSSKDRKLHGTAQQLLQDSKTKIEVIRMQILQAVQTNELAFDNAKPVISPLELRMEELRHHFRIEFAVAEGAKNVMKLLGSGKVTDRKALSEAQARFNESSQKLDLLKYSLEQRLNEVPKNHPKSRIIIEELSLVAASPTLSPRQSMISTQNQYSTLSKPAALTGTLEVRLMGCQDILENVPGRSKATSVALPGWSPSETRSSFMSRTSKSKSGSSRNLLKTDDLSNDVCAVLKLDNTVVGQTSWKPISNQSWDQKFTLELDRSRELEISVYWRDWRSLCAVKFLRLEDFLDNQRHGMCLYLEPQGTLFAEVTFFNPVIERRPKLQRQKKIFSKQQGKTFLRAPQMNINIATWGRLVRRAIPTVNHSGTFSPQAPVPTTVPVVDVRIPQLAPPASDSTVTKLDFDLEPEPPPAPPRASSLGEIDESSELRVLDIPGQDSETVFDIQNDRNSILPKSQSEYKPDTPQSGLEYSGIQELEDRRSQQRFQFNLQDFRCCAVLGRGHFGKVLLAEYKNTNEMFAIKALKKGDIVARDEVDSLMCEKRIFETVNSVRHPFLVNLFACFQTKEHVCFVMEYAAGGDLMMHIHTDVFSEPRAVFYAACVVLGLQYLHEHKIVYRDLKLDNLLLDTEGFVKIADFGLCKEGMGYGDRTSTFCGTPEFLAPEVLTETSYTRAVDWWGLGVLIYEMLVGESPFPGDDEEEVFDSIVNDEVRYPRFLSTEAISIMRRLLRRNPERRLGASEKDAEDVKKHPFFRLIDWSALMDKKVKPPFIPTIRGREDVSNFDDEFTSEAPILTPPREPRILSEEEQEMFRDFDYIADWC
T1 sequence (P29274 whole entry): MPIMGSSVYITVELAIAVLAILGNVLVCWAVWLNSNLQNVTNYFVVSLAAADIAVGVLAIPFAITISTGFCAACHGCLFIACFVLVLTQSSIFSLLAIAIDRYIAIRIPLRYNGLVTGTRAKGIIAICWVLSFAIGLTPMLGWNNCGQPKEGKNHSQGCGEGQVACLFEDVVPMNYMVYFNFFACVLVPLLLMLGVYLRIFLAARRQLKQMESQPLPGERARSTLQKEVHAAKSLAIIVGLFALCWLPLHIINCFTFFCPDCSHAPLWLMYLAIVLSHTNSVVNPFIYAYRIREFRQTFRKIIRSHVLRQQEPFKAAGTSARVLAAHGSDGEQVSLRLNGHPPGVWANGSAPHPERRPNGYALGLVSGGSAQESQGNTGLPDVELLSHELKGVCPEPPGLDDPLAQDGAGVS

As for `CCS(=O)(=O)N1CC(CC#N)(n2cc(-c3ncnc4[nH]ccc34)cn2)C1` [Baricitinib], in [1] (antagonistic effect), the “IC50 (μM), AA2AR, antagonistic effect” value was “Inactive”. Further, the inhibition at 30 µM in [2] (30 µM, mean of n=2, read-out: % inhibition (mean) activity, PI3Kbeta (p110b/p85a)) came to 4%; in [3] (mean of n=2, read-out: % inhibition (mean) activity, iNOS), 5%; in [3] (replicate 1, read-out: % inhibition of control activity (1st), iNOS), 6%; in [3] (replicate 2, read-out: % inhibition of control activity (2nd), iNOS), 4%; in assay [4] (mean of n=2, read-out: % inhibition (mean) activity, PDE10A2), 44.8%; in [4] (replicate 1, read-out: % inhibition of control activity (1st), PDE10A2) it was 45.5%. Moreover, the inhibition at 30 µM in assay [4] (replicate 2, read-out: % inhibition of control activity (2nd), PDE10A2) stood at 44%; in [5] (30 µM, mean of n=2) it was 21%; in [6] (read-out: % inhibition (mean) activity, PRK2), 98%. Moreover, the remaining activity at 30 µM in assay [2] (30 µM, replicate 1, read-out: % inhibition of control activity (1st), measured as % of positive control activity, PI3Kbeta (p110b/p85a)) stood at 92%; in assay [2] (30 µM, replicate 2, read-out: % inhibition of control activity (2nd), measured as % of positive control activity, PI3Kbeta (p110b/p85a)), 99%; in assay [6] (read-out: % inhibition of control activity (1st), measured as % of positive control activity, PRK2) it was 1%; in [6] (read-out: % inhibition of control activity (2nd), measured as % of positive control activity, PRK2) it was 2%. For the same compound, the “IC50 (μM), PI3 Kinase (p110b/p85a)” value in assay [2] (setting [10]) is “Inactive”. The “IC50 (μM), iNOS” value in assay [3] (setting [10]) is on record as “Inactive”. The IC50 in assay [4] (dose–response, 8 concentrations, top 100 μM, triplicate, mean ± SEM) amounted to 28 ± 2 µM. The Ki in [4] (estimated from experimental IC50, Cheng and Prusoff) is 6.1 µM. For the same compound, the “IC50 (μM), EGFR” value in [5] (setting [10]) is on record as “Inactive”.
For the compound `COc1cc2ncnc(N3CC[C@@H](Oc4cnc5ccccc5n4)C3)c2cc1OC` [PQ-10], the IC50 in assay [7] is 6 µM.
Take `C[C@@H]1CCN(C(=O)CC#N)C[C@@H]1N(C)c1ncnc2[nH]ccc12` [Tofacitinib]: the “IC50 (μM), AA2AR, agonistic effect” value in assay [1] (agonistic effect (footnote c)) was “Inactive”. Moreover, the “IC50 (μM), 15-ALOX” value in assay [8] (30 μM screen, follow-up 8 concentrations top 100 μM, triplicate, active if IC50 lower than 30 μM) is “Inactive”. The inhibition at 30 µM amounted to 27% in assay [8] (mean of n=2, read-out: % inhibition (mean) activity, 15-LOX-1); 19.3% in [8] (replicate 1, read-out: % inhibition of control activity (1st), 15-LOX-1); 34% in assay [8] (replicate 2, read-out: % inhibition of control activity (2nd), 15-LOX-1). The “IC50 (μM), ADORA3, antagonistic and agonistic effect” value in assay [9] was “Inactive”.

Usually IC50 stands for the concentration needed to halve the response being measured. As usually defined, the Ki is the dissociation constant of the complex between target and ligand, obtained from inhibition or displacement.
